In patent US5175320A, “Fluorinated bile acid derivatives, processes for the preparation thereof and pharmaceutical compositions containing them” (Giuliani S.p.A., priority 1989, dated 1992):
≈ marks a conversion by molar mass, not a printed value. Entries after “also recorded” stand apart in the source; their conditions may differ.

Key:
[1] = detergency, critical micellar concentration; format: physicochemical; details: for CMC: Table 1
Protocol: (§1) 6-FCDCA has been submitted to a series of physico-chemical determinations following a previously described protocol. Particularly, the lypophilicity, detergency, water solubility and pKa were measured.

[2] = water solubility (of the protonated forms); format: physicochemical
Protocol: as §1, with “measured. | rK' = relative values Water solubility of the protonated forms Data on water solubility are reported on the enclosed table 1.” for “measured.”

[3] = lypophilicity by C/18 reverse phase HPLC; format: physicochemical; details: for rK' C-18: rK' = relative values, C-18 reverse phase HPLC
Protocol: as §1

human stools = format: in vitro ADME
pKa = format: physicochemical
Text: 6-FCDCA has been submitted to a series of physico-chemical determinations following a previously described protocol.

Row | Structure (SMILES) | CMC [1] [mmol/1] | water solubility [2] [µmol] | S (water solubility) ([2]; protonated forms, Table 1) [µM] | rK' C-18 [3] | critical micellar concentration [1] [mmol/L] | water solubility compared with CDCA [2] | solubility ([2]; water) [µM] | lypophilicity compared with natural analogues ([3]; C/18 reverse phase HPLC, result in words) | protection of the 7-hydroxy group from oxidation and 7-dehydroxylation (human stools) | stability to intestinal bacteria compared with CDCA (human stools) | pKa (pKa)
1 | C[C@H](CCC(=O)O)[C@H]1CC[C@H]2[C@@H]3[C@H](O)C[C@@H]4C[C@H](O)CC[C@]4(C)[C@H]3CC[C@]12C [CDCA, chenodeoxycholic, reference compound] | 9 | 30 | 30 | 0.89 |  |  |  |  |  |  | 
2 | C[C@H](CCC(=O)O)[C@H]1CC[C@H]2[C@@H]3[C@H](O)C(F)[C@H]4C[C@H](O)CC[C@]4(C)[C@H]3CC[C@]12C (stereo partly drawn) [Example 6-FCDCA, 3α,7α-Dihydroxy-6-fluoro-5α-cholan-24-oic acid] | 10 |  |  | 0.6 | 10 | slightly higher than that of CDCA | 80 (≈ 32.8 µg/mL) | lower when compared with CDCA; also recorded: intermediate between CDCA and UDCA; also recorded: less lypohilic than CDCA | efficaciously protects the hydroxy group in 7-position to oxidation and 7-dehydroxylation | more stable to intestinal bacteria | 5
3 | C[C@H](CCC(=O)O)[C@H]1CC[C@H]2[C@@H]3[C@@H](O)C[C@@H]4C[C@H](O)CC[C@]4(C)[C@H]3CC[C@]12C [UDCA, ursodeoxycholic, reference compound] |  |  |  | 0.4 |  |  |  |  |  |  | 
